From patent US10246486B2, “Macrocyclic inhibitors of flaviviridae viruses” (Gilead Sciences, Inc., priority 2012, dated 2019)
Where two headings read alike, the source gives them in different places.

How the values were obtained:
[1] = test system: HCV replicon 1a (human hepatoma Huh-7 cell line harboring a HCV replicon); experiment: microbe, parasite or virus in culture; type: cell-based; conditions: for inhibition at 1 µM: Hepatitis C virus, Huh-7, 72 h, read-out: Replicon 1a % inhibition at 1 μm
[2] = rcm bond, Hoveyda-Grubbs 2nd generation catalyst

In the case of `CO[C@@H]1/C=C/COc2cccc(c2)[C@@H](C(C)C)NC(=O)[C@@H]2CCCN(N2)C(=O)[C@H](C)NC(=O)[C@H](C(C)C)NC(=O)[C@@H]1C` [Example 37, (E)-(2R,5S,11S,14S,17R,18R)-2,14-Diisopropyl-18-methoxy-11,17-di methyl-22-oxa-3,9,12,15,28-pentaaza-tricyclo[21.3.1.1*5,9]octacosa-1(27),19,23,25-tetraene-4,10,13,16-tetraone], the “Replicon 1a % inhibition at 1 μm” value [1] is reported as 76%.
Molecule `CC(C)[C@@H]1NC(=O)[C@H](C)[C@H](O[Si](C)(C)C(C)(C)C)CCC=Cc2cccc(c2)[C@@H](C)NC(=O)[C@@H]2CCCN(N2)C(=O)[C@H](C)NC1=O` has a ring closure, yield of all isomers ([2]; from C=CCC[C@@H](O[Si](C)(C)C(C)(C)C)[C@@H](C)C(=O)N[C@H](C(=O)N[C@@H](C)C(=O)N1CCC[C@@H](C(=O)N[C@H](C)c2cccc(C=C)c2)N1)C(C)C, 1,2-dichloroethane, 2.8 mM, 80.0 °C, 1.0 h) of 43%.
For `CC(C)[C@@H]1NC(=O)CCCCC=Cc2cc3cc(ccc3cn2)[C@@H](C)OC(=O)[C@@H]2CCCN(N2)C(=O)[C@H](C)NC1=O`, the ring closure, yield of all isomers ([2]; from C=CCCCCC(=O)N[C@H](C(=O)N[C@@H](C)C(=O)N1CCC[C@@H](C(=O)O[C@H](C)c2ccc3cnc(C=C)cc3c2)N1)C(C)C, toluene, 2.16 mM, 111.0 °C, 0.5 h) was 31%.
`CC(C)[C@@H]1NC(=O)[C@H](C)CC=Cc2cc3cc(ccc3cn2)[C@@H](C)OC(=O)[C@@H]2CCCN(N2)C(=O)[C@H](C)NC1=O` gave a ring closure, yield of all isomers ([2]; from C=CC[C@@H](C)C(=O)N[C@H](C(=O)N[C@@H](C)C(=O)N1CCC[C@@H](C(=O)O[C@H](C)c2ccc3cnc(C=C)cc3c2)N1)C(C)C, toluene, 3.0 mM, 120.0 °C, 3.0 h) of 22%.
In the case of `C[C@@H]1NC(=O)[C@H](CCn2ccnn2)NC(=O)C(C)(C)/C=C/c2cc3cc(ccc3cn2)[C@@H](C)OC(=O)[C@@H]2CCCN(N2)C1=O` [Example 50], the “Replicon 1a % inhibition at 1 μm” value [1] is reported as 12%.
Molecule `CO[C@@H]1C=Cc2cc3cc(ccc3cn2)[C@@H](C)NC(=O)[C@@H]2CCCN(N2)C(=O)[C@H](C)NC(=O)[C@H](C(C)C)NC(=O)[C@@H]1C` has a ring closure, yield of all isomers ([2]; from C=Cc1cc2cc([C@@H](C)NC(=O)[C@@H]3CCCN(C(=O)[C@H](C)NC(=O)[C@@H](NC(=O)[C@H](C)[C@@H](/C=C/C)OC)C(C)C)N3)ccc2cn1, toluene, 3.33 mM, 110.0 °C, 8.0 h) of 26%.
For `CC1C=Cc2cc3cc(ccc3cn2)[C@@H](C)OC(=O)[C@@H]2CCCN(N2)C(=O)[C@H](C)NC(=O)[C@H](C(C)C)NC1=O` (stereo partly shown), the ring closure, yield of all isomers ([2]; from C=Cc1cc2cc([C@@H](C)OC(=O)[C@@H]3CCCN(C(=O)[C@H](C)NC(=O)[C@@H](NC(=O)C(C)C=C)C(C)C)N3)ccc2cn1, toluene, 2.6 mM, 111.0 °C, 3.0 h) was 1%.
For `CO[C@@H]1C=Cc2cc3cc(ccc3cn2)[C@@H](C)OC(=O)C2(C)CCCN(N2)C(=O)[C@H](C)NC(=O)[C@H](C(C)C)NC(=O)[C@@H]1C` (stereo partly shown), the ring closure, yield of all isomers ([2]; from C=Cc1cc2cc([C@@H](C)OC(=O)C3(C)CCCN(C(=O)[C@H](C)NC(=O)[C@@H](NC(=O)[C@H](C)[C@@H](/C=C/C)OC)C(C)C)N3)ccc2cn1, toluene, 3.06 mM, 111.0 °C, 3.5 h) was 21%.
In the case of `CC(C)[C@@H]1NC(=O)C(C)(C)/C=C/c2ccc3ccc(nc3c2)[C@@H](C(F)(F)F)NC(=O)[C@@H]2CCCN(N2)C(=O)[C@H](C)NC1=O` [Example 13], the “Replicon 1a % inhibition at 1 μm” value [1] is reported as 87%.
Work on `C[C@@H]1NC(=O)[C@H](Cc2ccccc2)NC(=O)CC=Cc2cc3cc(ccc3cn2)[C@@H](C)OC(=O)[C@@H]2CCCN(N2)C1=O` yielded a ring closure, yield of all isomers ([2]; from C=Cc1cc2cc([C@@H](C)OC(=O)[C@@H]3CCCN(C(=O)[C@H](C)NC(=O)[C@H](Cc4ccccc4)NC(=O)C/C=C/C)N3)ccc2cn1, chlorobenzene, 4.96 mM, 110.0 °C, 3.0 h) of 12%.
With `CO[C@@H]1CCC=Cc2cccc(c2)C2CCCCN2C(=O)[C@@H]2CCCN(N2)C(=O)[C@H](C)NC(=O)[C@H](C(C)C)NC(=O)[C@@H]1C` (stereo partly shown) the ring closure, yield of all isomers ([2]; from C=CCC[C@@H](OC)[C@@H](C)C(=O)N[C@H](C(=O)N[C@@H](C)C(=O)N1CCC[C@@H](C(=O)N2CCCCC2c2cccc(C=C)c2)N1)C(C)C, 1,2-dichloroethane, 3.05 mM, 84.0 °C, 2.5 h) was 18%.
`CC(C)[C@@H]1NC(=O)CC=Cc2cc3cc(ccc3cn2)[C@@H](C(F)(F)F)NC(=O)[C@@H]2CCCN(N2)C(=O)[C@H](C)NC1=O` showed a ring closure, yield of all isomers ([2]; from C=CCC(=O)N[C@H](C(=O)N[C@@H](C)C(=O)N1CCC[C@@H](C(=O)N[C@@H](c2ccc3cnc(C=C)cc3c2)C(F)(F)F)N1)C(C)C, toluene, 3.04 mM, 120.0 °C, 2.83 h) of 3%.
Molecule `CO[C@@H]1CCC=Cc2ccc3c(c2)[C@@H](CC3)N(C)C(=O)[C@@H]2CCCN(N2)C(=O)[C@H](C)NC(=O)[C@H](C(C)C)NC(=O)[C@@H]1C` has a ring closure, yield of all isomers ([2]; from C=CCC[C@@H](OC)[C@@H](C)C(=O)N[C@H](C(=O)N[C@@H](C)C(=O)N1CCC[C@@H](C(=O)N(C)[C@@H]2CCc3ccc(C=C)cc32)N1)C(C)C, 1,2-dichloroethane, 3.9 mM, 83.0 °C, 1.5 h) of 5%.
`C[C@@H]1NC(=O)[C@H](C2CCCCC2)NC(=O)CC=Cc2cc3cc(ccc3cn2)[C@@H](C)OC(=O)[C@@H]2CCCN(N2)C1=O` gave a ring closure, yield of all isomers ([2]; from C=Cc1cc2cc([C@@H](C)OC(=O)[C@@H]3CCCN(C(=O)[C@H](C)NC(=O)[C@@H](NC(=O)C/C=C/C)C4CCCCC4)N3)ccc2cn1, toluene, 5.0 mM, 110.0 °C, 2.0 h) of 7%.
For `C[C@@H]1NC(=O)[C@H]([C@@H](C)O[Si](C)(C)C(C)(C)C)NC(=O)CC=Cc2cc3cc(ccc3cn2)[C@@H](C)OC(=O)[C@@H]2CCCN(N2)C1=O`, the ring closure, yield of all isomers ([2]; from C=Cc1cc2cc([C@@H](C)OC(=O)[C@@H]3CCCN(C(=O)[C@H](C)NC(=O)[C@@H](NC(=O)C/C=C/C)[C@@H](C)O[Si](C)(C)C(C)(C)C)N3)ccc2cn1, toluene, 2.94 mM, 105.0 °C, 1.0 h) was 42%.
For `C[C@@H]1NC(=O)[C@H](CCn2cc(CO)nn2)NC(=O)C(C)(C)/C=C/c2cc3cc(ccc3cn2)[C@@H](C)OC(=O)[C@@H]2CCCN(N2)C1=O` [Compound 72], the “Replicon 1a % inhibition at 1 μm” value [1] was 0%.
`CC(C)[C@@H]1NC(=O)CC=Cc2ccc3ccc(cc3n2)[C@@H](C)OC(=O)[C@@H]2CCCN(N2)C(=O)[C@H](C)NC1=O` gave a ring closure, yield of all isomers ([2]; from C=CCC(=O)N[C@H](C(=O)N[C@@H](C)C(=O)N1CCC[C@@H](C(=O)O[C@H](C)c2ccc3ccc(C=C)nc3c2)N1)C(C)C, 1,2-dichloroethane, 18.2 mM, 100.0 °C, 1.0 h) of 3%.
`CC(C)[C@@H]1NC(=O)CCCC=Cc2cc3cc(ccc3cn2)[C@@H](C)OC(=O)[C@@H]2CCCN(N2)C(=O)[C@H](C)NC1=O` showed a ring closure, yield of all isomers ([2]; from C=CCCCC(=O)N[C@H](C(=O)N[C@@H](C)C(=O)N1CCC[C@@H](C(=O)O[C@H](C)c2ccc3cnc(C=C)cc3c2)N1)C(C)C, toluene, 2.41 mM, 111.0 °C, 0.5 h) of 63%.
With `CC(C)[C@@H]1NC(=O)[C@H](C)C/C=C/COc2ccc(F)c(c2)[C@@H](C)OC(=O)[C@@H]2CCCN(N2)C(=O)[C@H](C)NC1=O` [Example 35] the inhibition at 1 µM [1] was 94%.
With `CC(C)[C@@H]1NC(=O)C(C)(C)c2cccc(c2)-c2cc3cc(ccc3cn2)[C@@H](C)OC(=O)[C@@H]2CCCN(N2)C(=O)[C@H](C)NC1=O` [Compound 67] the inhibition at 1 µM [1] was 97%.
Molecule `CC(C)[C@@H]1NC(=O)CC=Cc2cc3cc(ccc3cn2)[C@@H](C)NC(=O)[C@@H]2CCCN(N2)C(=O)[C@H](C)NC1=O` has a ring closure, yield of all isomers ([2]; from C=CCC(=O)N[C@H](C(=O)N[C@@H](C)C(=O)N1CCC[C@@H](C(=O)N[C@H](C)c2ccc3cnc(C=C)cc3c2)N1)C(C)C, toluene, 3.86 mM, 111.0 °C, 3.0 h) of 2.2%.
With `CC(C)[C@@H]1NC(=O)[C@H](C)/C=C/c2ccc3ccc(nc3c2)[C@@H](C)OC(=O)[C@@H]2CCCN(N2)C(=O)[C@H](C)NC1=O` [Example 26] the “Replicon 1a % inhibition at 1 μm” value [1] was 99%.
Work on `CC(C)[C@@H]1NC(=O)CCC(C)(C)CC=Cc2cccc(c2)[C@@H](C)NC(=O)[C@@H]2CCCN(N2)C(=O)[C@H](C)NC1=O` yielded a ring closure, yield of all isomers ([2]; from C=CCC(C)(C)CCC(=O)N[C@H](C(=O)N[C@@H](C)C(=O)N1CCC[C@@H](C(=O)N[C@H](C)c2cccc(C=C)c2)N1)C(C)C, 1,2-dichloroethane, 3.38 mM, 80.0 °C, 1.0 h) of 8%.
With `CC(C)[C@@H]1NC(=O)[C@H](C)CC=CCOc2ccc(F)c(c2)[C@@H](C)OC(=O)[C@@H]2CCCN(N2)C(=O)[C@H](C)NC1=O` the ring closure, yield of all isomers ([2]; from C=CCOc1ccc(F)c([C@@H](C)OC(=O)[C@@H]2CCCN(C(=O)[C@H](C)NC(=O)[C@@H](NC(=O)[C@H](C)CC=C)C(C)C)N2)c1, 1,2-dichloroethane, 3.0 mM, 83.0 °C, 2.0 h) was 20%.
For `CC[C@@H]1C=Cc2cc3cc(ccc3cn2)[C@@H](C)OC(=O)[C@@H]2CCCN(N2)C(=O)[C@H](C)NC(=O)[C@H](C(C)C)NC1=O`, the ring closure, yield of all isomers ([2]; from C=Cc1cc2cc([C@@H](C)OC(=O)[C@@H]3CCCN(C(=O)[C@H](C)NC(=O)[C@@H](NC(=O)[C@@H](/C=C/C)CC)C(C)C)N3)ccc2cn1, toluene, 3.0 mM, 120.0 °C, 4.0 h) was 1%.
In the case of `CC(C)[C@@H]1NC(=O)CC=Cc2cc3cc(ccc3cn2)[C@@H](C)OC(=O)[C@@H]2CCCN(N2)C(=O)[C@H](C)NC1=O`, the ring closure, yield of all isomers ([2]; from C=Cc1cc2cc([C@@H](C)OC(=O)[C@@H]3CCCN(C(=O)[C@H](C)NC(=O)[C@@H](NC(=O)C/C=C/C)C(C)C)N3)ccc2cn1, toluene, 3.33 mM, 110.0 °C, 1.0 h) is reported as 23.5%.
Molecule `C[C@@H]1NC(=O)[C@H](CCc2ccccc2)NC(=O)CC=Cc2cc3cc(ccc3cn2)[C@@H](C)OC(=O)[C@@H]2CCCN(N2)C1=O` has a ring closure, yield of all isomers ([2]; from C=Cc1cc2cc([C@@H](C)OC(=O)[C@@H]3CCCN(C(=O)[C@H](C)NC(=O)[C@H](CCc4ccccc4)NC(=O)C/C=C/C)N3)ccc2cn1, chlorobenzene, 4.81 mM, 110.0 °C, 3.5 h) of 12%.
For `C[C@@H]1NC(=O)[C@H](CO[Si](C)(C)C(C)(C)C)NC(=O)CC=Cc2cc3cc(ccc3cn2)[C@@H](C)OC(=O)[C@@H]2CCCN(N2)C1=O`, the ring closure, yield of all isomers ([2]; from C=Cc1cc2cc([C@@H](C)OC(=O)[C@@H]3CCCN(C(=O)[C@H](C)NC(=O)[C@H](CO[Si](C)(C)C(C)(C)C)NC(=O)C/C=C/C)N3)ccc2cn1, toluene, 2.98 mM, 105.0 °C, 0.58 h) was 38%.
